According to US8933235B2, “Pyridinedione carboxamide inhibitors of endothelial lipase” (Bristol-Myers Squibb Company, priority 2011, dated 2015):

Target: T1, endothelial lipase (EL) (Homo sapiens, UniProt Q9Y5X9)
T1 construct: Conditioned media obtained from HT-1080 cells, which were transformed by RAGE technology (Athersys) to overexpress endogenous EL; endogenous in cells; conditioned medium used as the enzyme source
T1 sequence (Q9Y5X9 21-500): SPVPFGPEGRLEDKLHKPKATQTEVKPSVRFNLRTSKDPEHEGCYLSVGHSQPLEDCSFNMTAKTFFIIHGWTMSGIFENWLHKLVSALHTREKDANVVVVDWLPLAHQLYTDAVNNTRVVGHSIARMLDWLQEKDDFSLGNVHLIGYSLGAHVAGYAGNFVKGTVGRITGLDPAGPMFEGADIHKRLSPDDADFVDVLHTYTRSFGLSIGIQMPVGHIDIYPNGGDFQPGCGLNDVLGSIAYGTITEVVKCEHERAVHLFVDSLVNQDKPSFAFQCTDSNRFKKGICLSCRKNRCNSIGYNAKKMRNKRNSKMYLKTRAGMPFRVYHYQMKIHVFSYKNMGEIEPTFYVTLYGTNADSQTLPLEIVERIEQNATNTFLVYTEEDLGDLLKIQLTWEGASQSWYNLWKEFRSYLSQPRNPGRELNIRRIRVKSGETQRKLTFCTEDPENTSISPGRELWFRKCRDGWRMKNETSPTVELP
Test: Endothelial lipase (EL) enzymatic assay with fluorescent substrate A10070 in DMPG vesicles
Format: biochemical
Conditions: conditioned media from HT-1080 cells overexpressing endogenous EL; 20 min preincubation at 37° C.; read-out: HLE_EL_CRC IC50
Experimental: Endothelial lipase activity was measured using a fluorescent substrate, A10070, (Invitrogen, CA) doped into an artificial vesicle containing DMPG (Avanti Polar Lipids) as the excipient. Vesicles were prepared by combining 285 uL of 1 mM DMPG in a 1:1 mixture of MeOH and CHCl3 with 15 uL of 1 mM A10070 in a 1:1 mixture of MeOH and CHCl3. The mixture was dried under nitrogen and resuspended in 150 uL of 50 mM HEPES pH 8.0 buffer containing 100 mM NaCl and 0.2 mM EDTA. The sample was allowed to sit at rt for 15 min and then was sonicated 3×4 mins on ice with a Branson Sonicator using duty cycle 1. This preparation provides vesicles with a mole fraction of 0.05 for the FRET substrate.
The enzymatic assay was measured using white, opaque 96-well half area plates. Each well contained 60 uL of assay buffer (50 mM HEPES pH 8.0, 50 mM NaCl and 1 mM CaCl2) and 2 ul of a DMSO solution containing compound of interest. Conditioned media obtained from HT-1080 cells, which were transformed by RAGE technology (Athersys) to overexpress endogenous EL, was added and the reaction was allowed to incubate for 20 min at 37° C. with gentle agitation. The reaction was started by the addition of 20 uL of a 1:4 dilution of vesicles. The final total reaction volume was 100 uL. The reaction rates were measured on a Gemini plate reader with an excitation wavelength of 488 nm and a emission of 530 nm. Readings were taken every 20 seconds for 10 min with agitation between each reading. The slope of the linear portion of the readout was used to calculate the rate of the reaction.

Row | Compound | IC50
1 | COc1ccc(CNc2c(C(=O)NCCCc3ccc(Cl)c(Cl)c3)ccn(C)c2=O)cc1 [Example 186, (3-(3,4-dichlorophenyl)propyl)-3-(4-methoxybenzylamino)-1-methyl-2-oxo-1,2-dihydropyridine-4-carboxamide] | 0.172 µM
2 | COc1ccc(CCNC(=O)c2cc(-c3cc(F)cc(C(F)(F)F)c3)n(C)c(=O)c2O)cc1 [Example 51, 6-(3-fluoro-5-(trifluoromethyl)phenyl)-3-hydroxy-N-(4-methoxyphenethyl)-1-methyl-2-oxo-1,2-dihydropyridine-4-carboxamide] | 0.178 µM
3 | Cn1c(C(F)(F)F)cc(C(=O)NCCCOc2ccccc2Cl)c(O)c1=O [Example 88, N-(3-(2-chlorophenoxy)propyl)-3-hydroxy-1-methyl-2-oxo-6-(trifluoromethyl)-1,2-dihydropyridine-4-carboxamide] | < 0.01 µM
4 | Cn1c(-c2cc(F)cc(C(F)(F)F)c2)cc(C(=O)NCCc2ccc(C(F)(F)F)cc2)c(O)c1=O [Example 60, 6-(3-fluoro-5-(trifluoromethyl)phenyl)-3-hydroxy-1-methyl-2-oxo-N-(4-(trifluoromethyl)phenethyl)-1,2-dihydropyridine-4-carboxamide] | 0.198 µM
